Experimental data from patent publication US20020177526A1, “Insecticidal seed coating” (priority 1996, published 2002).

Assays:
[1] = tested on: corn rootworm larvae; assay: Corn rootworm growth chamber bioassay (16 oz cup); format: in vivo; details: Iowa scale 1-6
Description: (§1) Hybrid corn seeds with and without an insecticidal coating are planted in Nebraska, Iowa, Minnesota, Wisconsin and Illinois to determine the efficacy of various coated seed treatments in standard tests. All seeds contain a Captan pretreatment whether or not a coating is applied. Additionally, an overcoat layer is applied to all coated seed which comprises the coating described in Example 2. Banded granular insecticides are applied at the manufactures label rates using granular insecticide applicators. Plot size for each treatment is two ten foot rows spaced 30 inches apart with four replications of each treatment at each location. Non-diaposing 1st instar Western Corn Rootworm larvae are side dressed on both sides of the corn plants in the row at a rate of 800 eggs per foot of row. Application of the insect larvae is made when the corn seedlings are approximately at the two leaf stage. The placement of the larvae is approximately two inches to the side of the corn plants and two inches below the soil surface. Plots are maintained with normal cultural practices until the corn plants reach the flowering stage. At late brown silk stage, 10 sequential roots from each plot are obtained. The corn stalks are cut at approximately 12 inches above the soil line. Each corn root is washed and after washing the roots are rated on a scale of 1-6 using the Iowa Root Rating Method developed at Iowa State University (Hills and Peters, 1971) and used commonly throughout the corn belt. In the rating, 1=no damage or only a few minor feeding scars; 2=feeding scars evident but no roots eaten off to within 1½ inch of the plant; 3=several roots eaten off to within 1½ inch of the plant but never the equivalent of an entire node of roots is destroyed; 4=one root node completely destroyed; 5=two root nodes completely destroyed and 6=three or more root nodes destroyed. A destroyed root is defined as a root that has been pruned to within 1½ inch of the base. […] In addition, a growth chamber and a greenhouse bioassay was used to determine the effect of insecticidal seed coating on corn rootworm control. For growth chamber assay, corn seed was planted in a 16 oz cup with garden Jiffymix, and allowed to grow for two weeks. Twenty neonate corn rootworm larvae are placed in the Jiffymix near corn roots and allowed to feed for approximately 2 weeks. The larvae are then screened out and the % mortality of the larvae is determined. Each corn root is washed and after washing the roots are rated on a scale of 1-6 using the Iowa Root Rating Method developed at Iowa State University (Hills and Peters, 1971). Some of the results are indicated below in Table 3. The greenhouse assay use 2 gallon pot with 20 mesh corn field soil. Forty corn rootworm larvae are placed in each pot when corn plant was at 4 to 5-leaf stage, and allowed to feed for 2 to 3 weeks. Each corn root is washed and after washing the roots are rated on a scale of 1-6 using the Iowa Root Rating Method developed at Iowa State University (Hills and Peters, 1971). Some of the results are indicated below in Table 3.
(§2) Maize seed is treated as described in Examples 1 and 2. A combination of methyl cellulose and polyvinyl alcohol is used as a binder and Celite 266 is used as filler for insecticide solution, which contains the compound of formula II as the insecticide. Bioassay methods are as described in Example 4. Root rating was based on the Iowa State 1-6 scale.

[2] = tested on: corn rootworm larvae; assay: Corn rootworm greenhouse bioassay (2 gal pot); format: in vivo; details: Iowa scale 1-6
Description: as §1, §2

Compound | Growth Chamber (16 oz cup) Root Rating ([1]; 0.01 mg/seed (combination: plus Raze 0.13 mg/seed)) | Growth Chamber (16 oz cup) Root Rating ([1]; 0.03 mg/seed) | Growth Chamber (16 oz cup) Root Rating ([1]; 0.3 mg/seed (combination: plus Raze 0.13 mg/seed)) | Growth Chamber (16 oz cup) Root Rating ([1]; 0.6 mg/seed) | Growth Chamber (16 oz cup) Root Rating ([1]; 0.8 mg/seed) | Growth Chamber (16 oz cup) Root Rating ([1]; 1.0 mg/seed) | Greenhouse (2 gal pot) Root Rating ([2]; 0.6 mg/seed) | Greenhouse (2 gal pot) Root Rating ([2]; 1.2 mg/seed) | Greenhouse (2 gal pot) Root Rating ([2]; 1.5 mg/seed) | Greenhouse (2 gal pot) Root Rating ([2]; 2.0 mg/seed) | Greenhouse (2 gal pot) Root Rating ([2]; 1.0 mg/seed)
CN1COCN(Cc2cnc(Cl)s2)/C1=N/[N+](=O)[O-] [Formula II] | 5.30 | 4.30 | 2.70 | 2.10 | 2.30 | 2.10 | 2.73 | 3.08 | 2.96 | 2.90 | –
Cc1c(F)c(F)c(COC(=O)[C@@H]2[C@H](/C=C(\Cl)C(F)(F)F)C2(C)C)c(F)c1F [Tefluthrin 50%, tefluthrin, reference compound] | – | – | – | – | – | 2.30 | – | – | – | – | 3.52
